Experimental data published in patent US20220023269A1, “Methods Of Treating Diabetes In Severe Insulin-Resistant Diabetic Subjects” (Balticgruppen Bio AB, priority 2018, published 2022).

What was measured:
hypertensive rats = settings: acute; cited from earlier work
muscle = settings: in vivo; cited from earlier work
DIO mice = experiment: Prevention of dysglycemia and insulin resistance in DIO B6 mice (oral gavage, 8 w); assay type: in vivo; settings: 100 mg/kg/day each, oral gavage
Experimental: MATSUDA index was calculated via: […] […] All cell lines were lysed in 0.1 M Tris-HCl, pH 6.8, 2% SDS, 10 mM sodium fluoride (SIGMA #S7920), 10 mM β-glycerophosphate (SIGMA #G6376), and 1 mM sodium vanadate (SIGMA #72060) and supernatant collected after 1 minute at 14,000 rpm. Islets (human and mouse) were lysed in 0.1 M Tris-HCl, pH 6.8, 2% SDS, protease inhibitor (Roche #04 693 124 001) and phosphatase inhibitor (Roche #04 906 837 001). […] The supernatant was collected after 2 min at 14,000 rpm. This procedure was repeated until all fat was eliminated and the supernatant was clear, at 4° C. Samples were analysed on 4-15% polyacrylamide gels. Values were normalised toward AMPKα, β-Actin, GAPDH or the respective non-phosphorylated counterpart. For RNA purification calf muscle, iWAT, interscapular BAT, and left lateral liver lobe was crushed in a pestle using liquid nitrogen before turning to respective RNA kit. RNA from liver was prepared using Total RNA isolation Nucleospin II Kit (Macherey-Nagel #740955.50). RNA from adipose tissue was prepared using RNeasy Lipid Tissue Mini kit (Qiagen #74804). RNA from calf muscle tissue was prepared using RNeasy Fibrous Tissue Mini kit (Qiagen #74704). First strand cDNA synthesis was done using SuperScript III (First-Strand Synthesis SuperMix for qRT-PCR, Invitrogen #11752-250) according to the manufacturer's instructions. Total RNA was prepared from isolated islets using RNeasy Micro Kit (Qiagen #74004) and first strand cDNA synthesis was done using Superscript III (Invitrogen #18080-051) according to the manufacturer's instructions. Quantification of mRNA expression levels was performed essentially as previously described (Reference 3).

[1] = test system: diet-induced obese C57BL/6J mice; experiment: Combination therapy AMPK activator + SGLT2 inhibitor in DIO mice; assay type: in vivo; settings: 2 weeks oral gavage, Compound 1 75 mg/kg, canagliflozin 10 mg/kg
Experimental: Male C57BL/6J mice, 8 weeks of age were purchased from Jackson, Charles River Laboratories, Inc. (Germany). All animals were housed in the Umeå University animal facility (Umeå Centre for Comparative Biology; UCCB) with a 12:12 hour light-dark cycle (lights on at 6 a.m.) and a constant temperature of 21° C. The animals were ear marked with a unique identification number, and groups of 5 mice were housed in transparent polycarbonate cages that comply with the requirements of the Code of Practice for the housing and care of animals used in scientific procedures. Wood chips were used as bedding material and environmental enrichment was provided. Animals were allowed to acclimate for 15 weeks to their new environment before the onset of the study. The animals were allowed ad libitum access to tap water throughout the accommodation and study period. During the acclimation period, the animals were allowed a standard pelleted diet (CRM (E) Rodent, Special Diets Services, Scanbur BK, Sweden). At the start of the study, the standard diet was changed to a very high fat diet (vHFD; Cat. No. D12492, Research Diets, Inc.) and this diet was kept throughout the whole study period. All of the procedures were approved by the Local Ethics Review Committee on Animal Experiments, Umeå Region.
23 Weeks old male C57BL/6J mice were fed HFD to promote diet-induced obesity (DIO) and administered once daily by oral gavage; vehicle (phosphate buffer pH 7.3, 2% w/v methyl cellulose; n=11), canagliflozin 10 mg/kg (n=14), Compound 1 at 75 mg/kg (n=14) and the combination of canagliflozin 10 mg/kg and Compound 1 at […] (n=15). After 2 weeks of treatment, fasted (6 hour) blood glucose and plasma insulin levels (determined in tail vein blood samples) were analysed. Food intake and weight were monitored throughout the study.
Blood samples were collected from the tail vein in Potassium-EDTA vials and plasma was separated by centrifugation and stored at −20° C. until assayed. Plasma insulin was determined with mouse insulin ELISA (Ultra Sensitive Mouse insulin ELISA Kit). Glucose concentrations were analysed in tail vein blood using a OneTouch® Ultra®2 Blood Glucose Meter (LifeScan, Inc).
Results shown in the figures are expressed as means±standard error of the mean (S.E.M.) for the number of animals per group. Statistical significance between the control group and the three treatment groups were analysed by Student's t-test, with P<0.05 considered statistically significant.

AMPK in HeLa cells = experiment: AMPK activation assay in HeLa cells (LKB1 null); assay type: cell-based, human; settings: 1 μM, last 20 minutes
Experimental: All cell lines were lysed in 0.1 M Tris-HCl, pH 6.8, 2% SDS, 10 mM sodium fluoride (SIGMA #S7920), 10 mM β-glycerophosphate (SIGMA #G6376), and 1 mM sodium vanadate (SIGMA #72060) and supernatant collected after 1 minute at 14,000 rpm. Islets (human and mouse) were lysed in 0.1 M Tris-HCl, pH 6.8, 2% SDS, protease inhibitor (Roche #04 693 124 001) and phosphatase inhibitor (Roche #04 906 837 001). Right calf muscle, heart, iWAT, and interscapular BAT was crushed in a pestle using liquid nitrogen and homogenised in ice cold RIPA buffer (150 mM sodium chloride (SIGMA #S7653), 1.0% NP40 (USB), 0.5% sodium deoxycholate (SIGMA #D6750), 0.1% SDS, 50 mM Tris pH 8.0, 20 mM sodium pyrophosphate (SIGMA #71515), 10 mM sodium fluoride, 10 mM β-glycerolphosphate, 1 mM sodium vanadate and protease inhibitor cocktail (Roche #04693124001), 1 tablet/10 ml lysis buffer). The supernatant was collected after 2 min at 14,000 rpm. This procedure was repeated until all fat was eliminated and the supernatant was clear, at 4° C. Samples were analysed on 4-15% polyacrylamide gels. Values were normalised toward AMPKα, β-Actin, GAPDH or the respective non-phosphorylated counterpart.
Table 3 contains origin of cell lines, growth conditions and settings for activation of AMPK via the test material. […]

NC(=O)c1ncn([C@@H]2O[C@H](CO)[C@@H](O)[C@H]2O)c1N [AICAR, 5-aminoimidazole-4-carboxyamide-1-β-D-ribofuranoside]
blood pressure (hypertensive rats): acutely lower blood pressure
microvascular perfusion in muscle (muscle): increases microvascular perfusion in muscle

CN(C)C(=N)N=C(N)N [Metformin, reference compound]
HFD-provoked increase in fasted glucose (DIO mice; 6 w): no significant effect
HFD-provoked increase in fasted plasma insulin (DIO mice; 6 w): no significant effect
insulin resistance (HOMA-IR) (DIO mice; vs vehicle): no significant effect

Cc1ccc([C@@H]2O[C@H](CO)[C@@H](O)[C@H](O)[C@H]2O)cc1Cc1ccc(-c2ccc(F)cc2)s1 [canagliflozin]
HOMA-IR [1]: lesser reduction
fasted blood glucose ([1]; 6 hour fast): lesser reduction
fasted plasma insulin ([1]; 6 hour fast): lesser reduction

C[C@H](CCC(=O)O)C[C@H](C)C[C@H](C)C(=O)/C=C(\O)[C@H](C)C[C@H](C)C/C=C/[C@@H](C)[C@@H](O)[C@@H](C)[C@@H](O)C[C@@H]1CC[C@@](C)([C@H]2CC[C@@](C)([C@@H](C)O)O2)O1 [ionomycin, reference compound]
AMPK activation (control) (AMPK in HeLa cells): readily activated AMPK
